# Experimental data taken from ChEMBL document CHEMBL1153901, “Synthesis and antibacterial activity evaluation of metronidazole-triazole conjugates” (Bioorg Med Chem Lett, 2009).
# Calls of active or inactive are those of the source. No cut-off for these calls is given here.
# What was measured:
# Assay type in all cases: functional, organism-based
# Escherichia coli = test: Antibacterial activity against Escherichia coli after 24 hrs by NCCLS microdilution method
# Pseudomonas aeruginosa = test: Antibacterial activity against Pseudomonas aeruginosa after 24 hrs by […] microdilution method
# Staphylococcus aureus = test: Antibacterial activity against Staphylococcus aureus after 24 hrs by […] microdilution method
# [1] = test system: Staphylococcus epidermidis; test: Antibacterial activity against Staphylococcus epidermidis after 24 hrs by […] microdilution method
# Candida albicans = test: Antifungal activity against Candida albicans
# Nakaseomyces glabratus = test: Antifungal activity against Candida glabrata
# Geotrichum candidum = test: Antifungal activity against Geotrichum candidum
IC50 (Escherichia coli) [µg/mL],IC50 (Pseudomonas aeruginosa) [µg/mL],IC50 (Staphylococcus aureus) [µg/mL],IC50 [1] [µg/mL],Compound,Activity (Candida albicans),Activity (Nakaseomyces glabratus),Activity (Geotrichum candidum)
0.091,0.18,0.35,0.35,Cc1ncc([N+](=O)[O-])n1CCn1cc(CO)nn1,inactive,inactive,inactive
0.67,0.13,> 500,> 500,Cc1ncc([N+](=O)[O-])n1CCn1cc(COc2ccccc2)nn1,–,–,–
> 500,> 500,> 500,> 500,Cc1ncc([N+](=O)[O-])n1CCn1cc(COC2CCCCO2)nn1 (stereo not drawn),–,–,–
0.003,0.02,0.13,> 500,Cc1ncc([N+](=O)[O-])n1CCn1cc(COc2ccc(Cl)cc2)nn1,inactive,inactive,inactive
> 500,> 500,> 500,> 500,CCC(=O)OCc1cn(CCn2c([N+](=O)[O-])cnc2C)nn1,–,–,–
> 500,> 500,> 500,> 500,COCc1cn(CCn2c([N+](=O)[O-])cnc2C)nn1,–,–,–
0.06,0.03,0.13,> 500,Cc1ccc(OCc2cn(CCn3c([N+](=O)[O-])cnc3C)nn2)cc1,inactive,inactive,inactive
> 500,> 500,> 500,> 500,Cc1ncc([N+](=O)[O-])n1CCn1cc(CCO)nn1,–,–,–
> 500,> 500,> 500,> 500,Cc1ncc([N+](=O)[O-])n1CCn1cc(CBr)nn1,–,–,–
0.028,> 500,> 500,> 500,Cc1ccccc1OCc1cn(CCn2c([N+](=O)[O-])cnc2C)nn1,inactive,inactive,inactive

# The next lines start with the compound.
Compound,IC50 (Escherichia coli) [µg/mL],IC50 (Pseudomonas aeruginosa) [µg/mL],IC50 (Staphylococcus aureus) [µg/mL],IC50 [1] [µg/mL],Activity (Candida albicans),Activity (Nakaseomyces glabratus),Activity (Geotrichum candidum)
Cc1ncc([N+](=O)[O-])n1CCn1cc(COc2ccccc2[N+](=O)[O-])nn1,> 500,> 500,> 500,> 500,–,–,–
CC(=O)c1ccc(OCc2cn(CCn3c([N+](=O)[O-])cnc3C)nn2)cc1,> 500,> 500,> 500,> 500,–,–,–
CN(C)[C@@H]1C(O)=C(C(N)=O)C(=O)[C@@]2(O)C(O)=C3C(=O)c4c(O)cccc4[C@@](C)(O)[C@H]3C[C@@H]12 [TETRACYCLINE],0.09,0.06,0.12,0.08,–,–,–
Cc1ncc([N+](=O)[O-])n1CCn1cc(COc2ccccc2C=O)nn1,> 500,> 500,> 500,> 500,–,–,–
Cc1ncc([N+](=O)[O-])n1CCn1cc(-c2ccccc2)nn1,0.13,0.13,> 500,> 500,inactive,inactive,inactive
Cc1ncc([N+](=O)[O-])n1CCn1cc(COc2ccccc2Cl)nn1,> 500,> 500,> 500,> 500,–,–,–
Cc1ncc([N+](=O)[O-])n1CCn1cc(-c2cccnc2)nn1,> 500,> 500,0.31,> 500,inactive,inactive,inactive
Cc1ncc([N+](=O)[O-])n1CCn1cc(COc2ccc([N+](=O)[O-])cc2)nn1,> 500,> 500,> 500,> 500,–,–,–
Cc1ncc([N+](=O)[O-])n1CCn1cc(COc2ccc(C=O)cc2)nn1,0.07,0.07,> 500,> 500,inactive,inactive,inactive
Cc1cccc(OCc2cn(CCn3c([N+](=O)[O-])cnc3C)nn2)c1,0.067,0.068,0.26,> 500,inactive,inactive,inactive
Cc1ncc([N+](=O)[O-])n1CCn1cc(-c2ccccn2)nn1,0.12,0.13,0.13,> 500,inactive,inactive,inactive
Cc1ncc([N+](=O)[O-])n1CCn1cc(C2(O)CCCCC2)nn1,> 500,0.18,> 500,> 500,inactive,inactive,inactive
